# Entries after “also recorded” stand apart in the source; their conditions may differ.
# Key:
# [1] = tested on: MCAO cerebral ischemia-reperfusion (IR) mice; settings: male, C57BL/6J, mouse, in vivo, 5 days
# [2] = tested on: MCAO cerebral ischemia-reperfusion (IR) mice; assay: MCAO cerebral ischemia-reperfusion (IR) mouse model, infarct area by TTC staining; type: in vivo, C57BL/6J mice; settings: for Infarct area percentage (%) X ± SD: IR mice, po, QD, from 4 days before surgery, 1 h ischemia, 24 h reperfusion, IR model group 48.42 ± 24.21; for Infarcted area compared with the IR group mice (in words): oral administration
# Experimental: A surgical incision was made in the neck to expose a left common carotid artery (CCA), an internal carotid artery (ICA), and an external carotid artery (ECA). A pre-made filament was inserted through the external carotid artery into the internal carotid artery and advanced to a middle cerebral artery (MCA), causing ischemia in a left brain region. After 60 minutes of occlusion, the filament was removed to achieve reperfusion in the left brain region. FIG. 5 is a schematic diagram illustrating the MCAO cerebral ischemia model using the intraluminal filament approach.
# 1. Animal anesthesia and neck preparation: the mice were anesthetized by inhalation of 2% isoflurane gas. After muscle relaxation, the four limbs of the mice were fixed to an operating table with 3M medical tape. Depilatory cream was used to remove the hair on a side of the neck, and erythromycin eye ointment was applied to the eyeballs of the mice to prevent eye dryness.
# 2. Surgical incision: the neck skin was disinfected sequentially with iodophor and 75% alcohol cotton balls. A 3 cm incision was made along the midline of the neck. Under a stereomicroscope, the subcutaneous tissue and fat were bluntly dissected, the superficial fascia and platysma were incised to expose the deep fascia of the neck and the anterior tracheal muscle. After the anterior tracheal muscle was exposed, the deep cervical fascia was torn along an anterior edge of the left sternocleidomastoideole, exposing the sternocleidomastoideole, which was then pulled posteriorly. The dissection continued downward along the sternocleidomastoideole until the deeper carotid sheath was exposed.
# 3. Vessel exposure and isolation: while avoiding compression of the mouse trachea, the carotid sheath was incised, and the common carotid artery (CCA) was isolated, taking care not to damage the vagus nerve running alongside in the sheath, as simulation or injury to the nerve may cause sudden respiratory arrest in the animal. The dissection continued upward along the common carotid artery, and the external carotid artery was identified at an upper edge of the thyroid cartilage. […] A proximal end of the external carotid artery was gently lifted to expose the internal carotid artery located laterally and inferiorly.
# 4. […] The internal carotid artery was temporarily clamped with a microvascular clip. […] The branch vessels were coagulated using an electrocautery pen. A distal end of the external carotid artery was permanently ligated with a 6-0 silk ligature, while the proximal end was looped for later use.
# 5. Filament insertion: a small incision was made at a ligated distal end of the external carotid artery, and the filament was threaded through the incision and tied with the pre-prepared loop ligature. The incision was cut off, and the filament was adjusted and threaded into the internal carotid artery. […] The ligature was tightened to fix the filament and timing started immediately.
# 6. After suturing the skin, anesthesia was discontinued. Following 60 minutes of ischemia, the filament was removed to complete cerebral ischemia-reperfusion.
# 7. Close the incision: the incision was closed using interrupted 4-0 sutures, disinfected with iodophor, and 3 mL of saline was injected intraperitoneally for rehydration. Postoperative analgesia jelly was provided, and the mice were kept warm and monitored continuously until they recover from anesthesia.
# C57BL/6J male mice, aged 8 weeks, were acclimatized for 1 week and then randomly assigned to 7 groups. Except for eight mice in the blank control group (i.e., the sham-operated control group), the remaining mice underwent MCAO surgery to induce cerebral ischemia and were randomly divided into 6 groups, including an IR model group, a TAK875 group (12 mice per group), and four LY2922470 groups with different concentrations (8 mice per group). […]
SMILES,Time of death after reperfusion [1] [h],"Deaths after MCAO cerebral ischemia surgery ([1]; po, 30 mg/kg)",Infarct area percentage (%) X ± SD ([2]; TAK875 30 mg/kg) [%],Infarcted area compared with the IR group mice (in words) ([2]; TAK875 30 mg/kg),Infarct area percentage (%) X ± SD ([2]; LY2922470 10 mg/kg),Infarct area percentage (%) X ± SD ([2]; LY2922470 20 mg/kg) [%],Infarct area percentage (%) X ± SD ([2]; LY2922470 40 mg/kg),Infarct area percentage (%) X ± SD ([2]; LY2922470 80 mg/kg) [%],Infarcted area in the brain compared with the IR group mice (in words) ([2]; LY2922470 10 mg/kg),Infarcted area in the brain compared with the IR group mice (in words) ([2]; LY2922470 40 mg/kg),Infarcted area compared with the IR group mice (in words) ([2]; different doses of LY2922470 (10-80 mg/kg))
Cc1cc(OCCCS(C)(=O)=O)cc(C)c1-c1cccc(COc2ccc3c(c2)OC[C@H]3CC(=O)O)c1 [TAK875],18,one from the TAK875 group died,48.9 ± 25.13,no significant decrease in the size of the infarcted area,,,,,,,
CC#C[C@@H](CC(=O)O)c1ccc(OCc2ccc(CN3CCCc4cccc(OC)c43)s2)cc1 [LY2922470],,,,,26.77 ± 14.54 (*) %,30.55 ± 16.52,20.4 ± 6.88 (**) %,31.03 ± 17.8,significantly reduced,significantly reduced,the infarcted area in the mice was reduced; also recorded: significantly decreased
